Here are results for twelve compounds from ChEMBL document CHEMBL2385049, “The effects and mechanism of flavonoid-rePON1 interactions. Structure-activity relationship study” (Bioorg Med Chem, 2013).

In test [1] the target is Serum paraoxonase/arylesterase 1 (Homo sapiens) (UniProt P27169). The test can be described thus: Binding affinity to recombinant paraoxonase-1 (unknown origin) expressed in Escherichia coli.
For test [2] the target is unchanged. The test can be described thus: Binding affinity to recombinant paraoxonase-1 (unknown origin) expressed in Escherichia coli after 5 mins by Trp-fluorescence quenching method.
For test [3] the target is unchanged. In words: Activation of recombinant paraoxonase-1 (unknown origin) expressed in Escherichia coli assessed as delaying of Cu2+-induced LDL oxidation time after 15 mins by UV ELISA. Background: ELISA stands for enzyme-linked immunosorbent assay.

Activity calls are given as the source filed them. No cut-off for these calls is given here.

Serum paraoxonase/arylesterase 1 (Homo sapiens), sequence (P27169 whole entry): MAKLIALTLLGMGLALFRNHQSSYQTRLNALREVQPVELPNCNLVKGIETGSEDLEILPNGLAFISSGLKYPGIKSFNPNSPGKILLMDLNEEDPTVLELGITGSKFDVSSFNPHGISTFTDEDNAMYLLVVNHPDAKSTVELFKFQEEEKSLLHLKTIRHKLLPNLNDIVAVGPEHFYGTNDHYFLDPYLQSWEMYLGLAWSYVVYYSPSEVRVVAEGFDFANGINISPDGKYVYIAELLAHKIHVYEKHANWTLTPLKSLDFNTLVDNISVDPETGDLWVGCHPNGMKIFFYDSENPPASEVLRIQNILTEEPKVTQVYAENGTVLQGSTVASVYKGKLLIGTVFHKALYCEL

With `O=c1cc(-c2ccc(O)c(O)c2)oc2cc(O)cc(O)c12`, the Ka in test [1] was 1.33 ×10⁵ /M. In addition, the KSV in test [2] is 1.34 ×10⁵ /M.

In the case of `O=c1c(O)c(-c2ccc(O)c(O)c2)oc2cc(O)cc(O)c12`, the outcome in test [3] was Active. For the same compound, the Ka in test [1] turned out to be 1.28 ×10⁵ /M. In test [2], the KSV was 1.25 ×10⁵ /M.

As for `O=c1c(O)c(-c2ccc(O)cc2)oc2cc(O)cc(O)c12`, in test [1], the Ka turned out to be 1.43 ×10⁵ /M. The KSV in test [2] worked out at 1.22 ×10⁵ /M.

`O=c1c(-c2ccc(O)cc2)coc2cc(O)cc(O)c12`: the Ka in test [1] was 0.86 ×10⁵ /M. Besides, the KSV in test [2] was 0.64 ×10⁵ /M.

With `Oc1cc(O)c2c(c1)OC(c1ccc(O)c(O)c1)C(O)C2` (stereo not given), in test [3], the result was inactive.

Take `O=c1cc(-c2ccc(O)c(O)c2)oc2cc(O)ccc12`: the Ka in test [1] was determined as 1.07 ×10⁵ /M. Moreover, the KSV in test [2] is 0.87 ×10⁵ /M.

As to `O=c1cc(-c2ccc(O)cc2)oc2cc(O)cc(O)c12`, the Ka in test [1] is 1.13 ×10⁵ /M. Besides, the KSV in test [2] stood at 1.15 ×10⁵ /M.

`O=C1C[C@@H](c2ccc(O)cc2)Oc2cc(O)cc(O)c21`: the Ka in test [1] worked out at 0.68 ×10⁵ /M. In addition, the KSV in test [2] is 0.35 ×10⁵ /M.

As for `O=c1cc(-c2ccc(O)cc2O)oc2ccccc12`, in test [1], the Ka was determined as 0.75 ×10⁵ /M. For the same compound, in test [2], the KSV is 0.54 ×10⁵ /M.

With `CC1(C)C=Cc2c(ccc3c2OC[C@@H](c2ccc(O)cc2O)C3)O1`, in test [3], the TIME was 1.33 h. Besides, in test [1], the Ka was 2.4 ×10⁵ /M. Further, the KSV in test [2] worked out at 1.93 ×10⁵ /M.

For `O=c1c(-c2ccc(O)cc2)coc2cc(O)ccc12`, in test [1], the Ka came to 1.13 ×10⁵ /M. Besides, the KSV in test [2] is 0.58 ×10⁵ /M.

Turning to `COc1ccc([C@@H]2CC(=O)c3c(O)cc(O)cc3O2)cc1O`, in test [1], the Ka stood at 0.66 ×10⁵ /M. Also, the KSV in test [2] turned out to be 0.6 ×10⁵ /M.
